We go through 24 compounds from BindingDB's records for doi:10.1016/j.bmcl.2019.01.031 (Merck, 2019).

Assay [1] is described as follows: Inhibition of NS5A Y93H mutant in HCV genotype 1a assessed as decrease in viral replication.
Assay [2] is described as follows: Inhibition of NS5A in HCV genotype 1a assessed as decrease in viral replication.
Assay [3] in a line: Inhibition of NS5A in HCV genotype 2b assessed as decrease in viral replication.
Assay [4] is described as follows: Inhibition of NS5A in HCV genotype 1b assessed as decrease in viral replication.
Assay [5] can be described thus: Inhibition of NS5A in HCV genotype 3a assessed as decrease in viral replication.
Assay [6] is described as follows: Inhibition of NS5A in HCV genotype 4a assessed as decrease in viral replication.
Assay [7] is described as follows: Inhibition of NS5A in HCV genotype 2a assessed as decrease in viral replication.
Assay [8] in a line: Inhibition of NS5A L31V mutant in HCV genotype 1a assessed as decrease in viral replication.

For `COC(=O)N[C@H](C(=O)N1CCC[C@H]1c1ncc(-c2ccc3c(ccc4c(=O)c5cc(-c6cnc([C@@H]7CCCN7C(=O)[C@@H](NC(=O)OC)C(C)C)[nH]6)ccc5oc43)c2)[nH]1)C(C)C`, the EC50 in assay [1] is 66 nM; in assay [2], 0.02 nM.
Regarding `COC(=O)N[C@H](C(=O)N1CCC[C@H]1c1ncc(-c2ccc3c(c2)Oc2ccc4cc(-c5cnc([C@@H]6CCCN6C(=O)[C@@H](NC(=O)OC)C(C)C)[nH]5)ccc4c2C3(C)C)[nH]1)C(C)C`, the EC50 was determined as 18 nM in assay [1], 11 nM in assay [3] and 0.0029 nM in assay [2].
`CC[C@@H]1c2ccc(-c3cnc([C@@H]4CCCN4C(=O)[C@@H](NC(=O)OC)C4CCOCC4)[nH]3)cc2Oc2ccc3cc(-c4cnc([C@@H]5CCCN5C[C@@H](NC(=O)OC)C5CCOCC5)[nH]4)ccc3c21`: the EC50 in assay [4] came out at 0.004 nM; in assay [5], 0.2 nM; in assay [6] it was 0.01 nM; in assay [1], 0.8 nM; in assay [3] it was 0.3 nM; in assay [2], 0.01 nM.
Take `COC(=O)N[C@H](C(=O)N1C[C@H](F)C[C@H]1c1ncc(-c2ccc3c(ccc4oc5cc(-c6cnc([C@@H]7C[C@@H](F)CN7C(=O)[C@@H](NC(=O)OC)C(C)C)[nH]6)ccc5c(=O)c43)c2)[nH]1)C(C)C`: the EC50 in assay [4] was 0.0045 nM; in assay [5], more than 1 nM; in assay [1], 1.2 nM; in assay [3] it was 90 nM; in assay [2], 0.029 nM.
On to `COC(=O)N[C@H](C(=O)N1CCC[C@H]1c1ncc(-c2ccc3c(c2)Oc2ccc4cc(-c5cnc([C@@H]6CCCN6C(=O)[C@@H](NC(=O)OC)C(C)C)[nH]5)ccc4c2[C@@H]3C)[nH]1)C(C)C`, for which the EC50 in assay [4] worked out at 0.0036 nM; in assay [5] it was 1.4 nM; in assay [1] it was 11 nM; in assay [3], 37 nM; in assay [2], 0.0046 nM.
Turning to `COC(=O)N[C@H](C(=O)N1CCC[C@H]1c1ncc(-c2ccc3c(c2)Oc2ccc4cc(-c5cnc([C@@H]6CCCN6C[C@@H](NC(=O)OC)C6CCOCC6)[nH]5)ccc4c2C3(C)C)[nH]1)C1CCOCC1`, the EC50 stood at 0.004 nM in assay [4]; 0.08 nM in assay [5]; 0.006 nM in assay [6]; 0.7 nM in assay [1]; 0.3 nM in assay [3]; 0.002 nM in assay [2].
Regarding `CCC1c2ccc(-c3cnc([C@@H]4CCCN4C(=O)[C@@H](NC(=O)OC)C(C)C)[nH]3)cc2Oc2ccc(-c3cnc([C@@H]4CCCN4C(=O)[C@@H](NC(=O)OC)C(C)C)[nH]3)cc21` (some centres not stated), the half-maximal effective concentration (EC50) in assay [4] worked out at 0.004 nM; in assay [5], 0.07 nM; in assay [7], 0.005 nM; in assay [1], 24 nM; in assay [2], 0.02 nM.
Take `CCN(CC)[C@@H](C(=O)N1C[C@H](F)C[C@H]1c1ncc(-c2ccc3c(ccc4oc5cc(-c6cnc([C@@H]7C[C@@H](F)CN7C(=O)[C@@H](c7ccccc7)N(CC)CC)[nH]6)ccc5c(=O)c43)c2)[nH]1)c1ccccc1`: the EC50 is 0.026 nM in assay [5], 506 nM in assay [1], 797 nM in assay [3] and 0.31 nM in assay [2].
Regarding `CC[C@H]1c2ccc(-c3cnc([C@@H]4CCCN4C(=O)[C@@H](NC(=O)OC)C(C)C)[nH]3)cc2Oc2ccc3cc(-c4cnc([C@@H]5CCCN5C(=O)[C@@H](NC(=O)OC)C(C)C)[nH]4)ccc3c21`, the EC50 in assay [5] was found to be 1.1 nM; in assay [1], 12 nM; in assay [3], 0.78 nM; in assay [2] it was 0.005 nM.
In the case of `COC(=O)N[C@H](C(=O)N1CCC[C@H]1c1ncc(-c2ccc3c(c2)Oc2ccc4cc(-c5cnc([C@@H]6CCCN6C[C@@H](NC(=O)OC)C6CCOCC6)[nH]5)ccc4c2[C@@H]3C)[nH]1)C1CCOCC1`, the EC50 in assay [8] is 0.03 nM; in assay [4] it was 0.006 nM; in assay [5], 0.06 nM; in assay [6], 0.004 nM; in assay [1] it was 0.5 nM; in assay [3], 0.5 nM. Besides, the concentration for a half-maximal effect (EC50) in assay [2] is 0.005 nM.
With `COC(=O)N[C@H](C(=O)N1CCC[C@H]1c1ncc(-c2ccc3c(=O)c4cc(-c5cnc([C@@H]6CCCN6C(=O)[C@@H](NC(=O)OC)C(C)C)[nH]5)ccc4oc3c2)[nH]1)C(C)C`, the EC50 in assay [4] turned out to be 0.002 nM; in assay [7] it was 0.1 nM; in assay [1], 1730 nM; in assay [2], 0.01 nM.
`COC(=O)N[C@H](C(=O)N1CCC[C@H]1c1ncc(-c2ccc3c(ccc4oc5ccc(-c6cnc([C@@H]7CCCN7C(=O)[C@@H](NC(=O)OC)C(C)C)[nH]6)cc5c(=O)c43)c2)[nH]1)C(C)C`: the EC50 in assay [4] was 0.1 nM; in assay [5], more than 1 nM; in assay [1], more than 100 nM; in assay [3] it was more than 100 nM; in assay [2], 0.2 nM.
Turning to `COC(=O)N[C@H](C(=O)N1C[C@H](F)C[C@H]1c1ncc(-c2ccc3c(ccc4oc5cc(-c6cnc([C@@H]7C[C@@H](F)CN7C(=O)[C@@H](NC(=O)OC)C7CCOCC7)[nH]6)ccc5c(=O)c43)c2)[nH]1)C1CCOCC1`, the EC50 came to 5.8 nM in assay [5], 0.18 nM in assay [1], 3.5 nM in assay [3] and 0.084 nM in assay [2].
As to `COC(=O)N[C@H](C(=O)N1CCC[C@H]1c1ncc(-c2ccc3c(c2)C(C)c2ccc4cc(-c5cnc([C@@H]6CCCN6C(=O)[C@@H](NC(=O)OC)C(C)C)[nH]5)ccc4c2O3)[nH]1)C(C)C` (some centres not stated), the EC50 in assay [1] came out at 49 nM; in assay [2], 0.0057 nM.
Take `CCC1(CC)c2ccc(-c3cnc([C@@H]4CCCN4C(=O)[C@@H](NC(=O)OC)C(C)C)[nH]3)cc2Oc2ccc3cc(-c4cnc([C@@H]5CCCN5C(=O)[C@@H](NC(=O)OC)C(C)C)[nH]4)ccc3c21`: the EC50 is 0.58 nM in assay [5], 4.1 nM in assay [1], 3.3 nM in assay [3] and 0.002 nM in assay [2].
For the compound `COC(=O)N[C@H](C(=O)N1CCC[C@H]1c1ncc(-c2ccc3c(c2)Oc2ccc4cc(-c5cnc([C@@H]6CCCN6C[C@@H](NC(=O)OC)C6CCOCC6)[nH]5)ccc4c2[C@H]3C)[nH]1)C1CCOCC1`, the EC50 in assay [8] was found to be 0.03 nM; in assay [4] it was 0.004 nM; in assay [5] it was 0.04 nM; in assay [6], 0.009 nM; in assay [1] it was 0.4 nM; in assay [3], 0.02 nM. Further, in assay [2], the 50% effective concentration (EC50) was determined as 0.004 nM.
With `COC(=O)N[C@H](C(=O)N1CCC[C@H]1c1ncc(-c2ccc3c(ccc4oc5cc(-c6cnc([C@@H]7CCCN7C(=O)[C@@H](NC(=O)OC)C(C)C)[nH]6)ccc5c(=O)c43)c2)[nH]1)C(C)C`, the EC50 in assay [4] was 0.003 nM; in assay [5], more than 1 nM; in assay [1], 18 nM; in assay [3] it was 14 nM; in assay [2] it was 0.003 nM.
Consider `COC(=O)N[C@H](C(=O)N1CCC[C@H]1c1ncc(-c2ccc3c(F)c4oc5ccc(-c6cnc([C@@H]7CCCN7C(=O)[C@@H](NC(=O)OC)C(C)C)[nH]6)cc5c(=O)c4cc3c2)[nH]1)C(C)C`, for which the EC50 in assay [4] was more than 1 nM; in assay [5] it was more than 1 nM; in assay [1], more than 100 nM; in assay [3] it was more than 100 nM; in assay [2], more than 1 nM.
Consider `CCC1(CC)c2ccc(-c3cnc([C@@H]4CCCN4C(=O)[C@@H](NC(=O)OC)C(C)C)[nH]3)cc2Oc2cc3ccc(-c4cnc([C@@H]5CCCN5C(=O)[C@@H](NC(=O)OC)C(C)C)[nH]4)cc3cc21`, for which the EC50 in assay [5] worked out at 1.1 nM; in assay [1] it was 3.3 nM; in assay [3] it was 4.5 nM; in assay [2] it was 0.002 nM.
Take `CC[C@H]1c2ccc(-c3cnc([C@@H]4CCCN4C(=O)[C@@H](NC(=O)OC)C4CCOCC4)[nH]3)cc2Oc2ccc3cc(-c4cnc([C@@H]5CCCN5C[C@@H](NC(=O)OC)C5CCOCC5)[nH]4)ccc3c21`: the half-maximal effective concentration (EC50) in assay [5] turned out to be 0.03 nM; in assay [1] it was 0.2 nM; in assay [2], 0.004 nM.
For `COC(=O)N[C@H](C(=O)N1CCC[C@H]1c1ncc(-c2ccc3c(ccc4oc5cc(-c6cnc([C@@H]7CCCN7C(=O)[C@@H](NC(=O)OC)C7CCOCC7)[nH]6)ccc5c(=O)c43)c2)[nH]1)C1CCOCC1`, the EC50 worked out at 0.72 nM in assay [5], 2 nM in assay [1], 0.48 nM in assay [3] and 0.041 nM in assay [2].
Take `COC(=O)N[C@H](C(=O)N1CCC[C@H]1c1ncc(-c2ccc3c(c2)Oc2ccc4cc(-c5cnc([C@@H]6CCCN6C(=O)[C@@H](NC(=O)OC)C(C)C)[nH]5)ccc4c2[C@H]3C)[nH]1)C(C)C`: the EC50 in assay [4] came out at 0.0016 nM; in assay [5] it was 0.72 nM; in assay [1], 7.2 nM; in assay [3], 1.9 nM; in assay [2], 0.0022 nM.
In the case of `CC[C@@H]1c2ccc(-c3cnc([C@@H]4CCCN4C(=O)[C@@H](NC(=O)OC)C(C)C)[nH]3)cc2Oc2ccc3cc(-c4cnc([C@@H]5CCCN5C(=O)[C@@H](NC(=O)OC)C(C)C)[nH]4)ccc3c21`, the concentration giving a half-maximal response (EC50) is 1.7 nM in assay [5], 15 nM in assay [1], 13 nM in assay [3] and 0.0027 nM in assay [2].
For `COC(=O)N[C@H](C(=O)N1CCC[C@H]1c1nc(-c2ccc3c(c2)O[C@@H](c2ccccc2)n2c-3cc3cc(-c4c[nH]c([C@@H]5CCCN5C(=O)[C@@H](NC(=O)OC)C(C)C)n4)ccc32)c[nH]1)C(C)C` [Elbasvir], the EC50 in assay [4] worked out at 0.003 nM; in assay [5], 0.02 nM; in assay [7], 0.003 nM; in assay [2] it was 0.004 nM.

One may read the EC50 as the concentration giving half of the maximal effect.
